Measurements taken from article PMC11219871, “Epigenetic-based differentiation therapy for Acute Myeloid Leukemia” (Nature Communications, 2024).
Where “and” joins values, the source holds several entries; their conditions need not be identical. Identical values can stand only once. Like-named read-outs stand apart in the source and are kept apart here.

Key:
ML-2 = experiment: Acetylome analysis (Acetyl-K enrichment, LC-MS/MS); assay type: cell-based, human; conditions: for Acetyl-K sites regulated, Number, Histone proteins / Acetyl-K sites regulated, Number, Non-histone proteins / Acetyl-K sites regulated, Percentages, Histone proteins / Acetyl-K sites regulated, Percentages, Non-histone proteins: Fig 4G; for Acetyl-K sites, Down-regulated / Acetyl-K sites, Up-regulated: Fig. 4C; for regulated Acetyl-K sites in Histone proteins / regulated Acetyl-K sites in Non-histone proteins: Fig. 4G; for percentage of Acetyl-K sites regulated: of 3618 quantified
Method: Cellular pellets were lysed for 15 min at 95 °C in 4% SDS, 100 mM Hepes/NaOH pH 8.0, containing 5 mM sodium butyrate and 5 mM Nicotinamide. After cooling down, lysates were incubated at 25 °C with 10 units of DNAse (Benzonase, Merk) and sonicated for 15 min in a Bioruptor for DNA shearing. Protein concentration was determined using microBCA, using BSA as standard. Samples were digested using on-bead protein aggregation capture (PAC) with ReSyn Biosciences MagReSyn® Hydoxyl microparticles (ratio Protein/Beads 1:5) in an automated King Fisher instrument (Thermo). Proteins were digested for 16 h at 37 C with LysC/Trypsin mix at a protein: enzyme ratio of 1:100 in 50 mM TEAB pH 8.0 (Trypsin Sequence grade, Sigma; LysC, Wako). The resulting peptides were speed-vac dried and dissolved in 100 µL of 200 mM HEPES pH 8.5.
Peptides (500 µg) were labeled with Thermo Scientific TMTpro 18plex™ Isobaric reagents for 1 h at 25 C. Reaction was quenched by adding 5% hydroxylamine for 15 min. Samples were pooled at a 1:1 ratio based on the total peptide amount, determined by comparing overall signal intensities on a regular LC-MS/MS run. The final mixture was desalted using a 500 mg Sep-Pak C18t cartridge (Waters) and dried prior to high pH reverse phase HPLC pre-fractionation.
Labeled peptides were fractionated offline through a high pH reverse phase chromatography using an Ultimate 3000 HPLC system equipped with a sample collector. Briefly, peptides were dissolved in 1200 µL of Buffer A (10 mM NH4OH) and loaded onto a XBridge BEH130 C18 column (3.5 µm, 250 mm length and 3.5 mm ID, Waters). Buffer B was composed of 10 mM NH4OH in 90% CH3CN. The following gradient was used at a flow rate of 500 µL/min: 0-50 min 0-25% B, 50-56 min 25-60% B, 56-57 min 60-90% B. One-minute fractions (500 µL) from […] were collected and neutralized with 10% formic acid. Based on the UV absorbance at 280 nm, 95% of the volume of 40 fractions was pooled in 5 fractions for Acetyl-Lysine enrichment. The 5% of these fractions was kept for proteome analysis. Pooled fractions were snap-frozen and lyophilized.
Lyophilized peptides (1.5 mg) from each pool were immuno-affinity purified with the PTMScan HS Acetyl-Lysine Motif (Ac−K) kit (Cell Signaling Technology). For each pool, three consecutive immuno-purifications (IPs) were performed using the manufacturer’s protocol in an automated King Fisher instrument (Thermo). Elution of purified peptides was performed in two consecutive steps of 50 μl of 0.15% TFA. Samples were desalted with C18 stage tips and eluates were vacuum dried and resuspended in 0.1% formic acid for subsequent analysis by LC−MS/MS.
LC-MS/MS was done by coupling an UltiMate 3000 RSLCnano LC system to an Orbitrap Exploris 480 mass spectrometer (Thermo Fisher Scientific). Samples were loaded into a trap column (Acclaim™ PepMap™ 100 C18 LC Columns 5 µm, 20 mm length) for 3 min at a flow rate of 10 µL/min in 0.1% FA. Peptides were then transferred to an EASY-Spray PepMap RSLC C18 column (Thermo) (2 µm, 75 µm x 50 cm) operated at 45 °C and separated using a 90 min effective gradient (buffer A: 0.1% FA; buffer B: 100% ACN, 0.1% FA) at a flow rate of 250 nL/min. The gradient used was, from 4% to 6% of buffer B the first 2 min, from 6% to 33% B the next 58 min, plus 10 additional minutes at 98% B.
The mass spectrometer was operated in a data-dependent mode, with an automatic switch between MS and MS/MS scans using a top 15 method. (Intensity threshold ≥ 1e4, dynamic exclusion of 20 sec and excluding charges unassigned, +1 and ≥ +7). MS spectra were acquired from 350 to 1500 m/z with a resolution of 60,000 FMHW (200 m/z). Ion peptides were isolated using a 0.7 Th window and fragmented using higher-energy collisional dissociation (HCD) with a normalized collision energy NCE of 36. MS/MS spectra were acquired with a fixed first mass of 120 m/z and a resolution of 45,000 FMHW (200 m/z). […]

GF-D8 = experiment: Differentiation assay, CD11b / annexin-V flow cytometry; assay type: cell-based; conditions: GF-D8 cell line; replicates 1-3 (Figure 2A);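 also: daily treatment at a GI50-based fraction of each compound's GI50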
Method: (§1) Next, the cells were washed twice with phosphate-buffered saline (PBS) and resuspended in 1X Binding Buffer at a concentration of 1 × 10^6 cells/mL. An 8-µL aliquot of APC-CD11b (BD Pharmingen, Franklin Lakes, NJ, USA) and 1 µL of FITC annexin-V (AV) (BD Pharmingen, Franklin Lakes, NJ, USA) antibodies were added and incubated for 15 min at room temperature in the dark. Finally, after the addition of 400 µL of 1X Binding Buffer to each tube, samples were collected on a BD FACSCanto flow cytometer (Becton Dickinson, San Jose, CA, USA) and analyzed using FlowJo software.

KASUMI-1 = experiment: as above; assay type: cell-based; conditions: KASUMI-1 cell line; replicates 1-3 (Figure 2A);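 also: daily treatment at a GI50-based fraction of each compound's GI50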
Method: as §1

M-O7e = experiment: as above; assay type: cell-based; conditions: MO7e cell line; replicates 1-3 (Figure 2A);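 also: daily treatment at a GI50-based fraction of each compound's GI50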
Method: as §1

MONO-MAC-6 = experiment: as above; assay type: cell-based; conditions: MONOMAC-6 cell line; replicates 1-3 (Figure 2A)
Method: as §1

OCI-AML2 = experiment: as above; assay type: cell-based; conditions: OCI-AML-2 cell line; replicates 1-3 (Figure 2A)
Method: as §1

TF-1 = experiment: as above; assay type: cell-based; conditions: TF-1 cell line; replicates 1-3 (Figure 2A);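 also: daily treatment at a GI50-based fraction of each compound's GI50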
Method: as §1

THP-1 = experiment: as above; assay type: cell-based; conditions: THP-1 cell line; replicates 1-3 (Figure 2A)
Method: as §1

UT-7 = experiment: as above; assay type: cell-based; conditions: UT7 cell line; replicates 1-3 (Figure 2A)
Method: as §1

[1] = ML-2, first (superseded) acetylome experiment, peer review file
[2] = distribution of acetylated sites in the acetylated proteins (Fig 4D)

Compound | Acetyl-K sites regulated, Number, Histone proteins (ML-2) | Acetyl-K sites regulated, Number, Non-histone proteins (ML-2) | Acetyl-K sites regulated, Percentages, Histone proteins (ML-2) | Acetyl-K sites regulated, Percentages, Non-histone proteins (ML-2) | Acetyl-K sites: Down-regulated, % (ML-2; ML-2 (Fig 4C)) | Acetyl-K sites: Down-regulated, Number (ML-2; ML-2 (Fig 4C)) | Acetyl-K sites: Non-regulated, % (ML-2; ML-2 (Fig 4C)) | Acetyl-K sites: Non-regulated, Number (ML-2; ML-2 (Fig 4C)) | Acetyl-K sites: Quantified (total number) (ML-2; ML-2 (Fig 4C)) | Acetyl-K sites: Regulated, % (ML-2; ML-2 (Fig 4C)) | Acetyl-K sites: Regulated, Number (ML-2; ML-2 (Fig 4C)) | Acetyl-K sites: Up-regulated, Number (ML-2; ML-2 (Fig 4C)) | fraction of regulated acetylation sites upregulated (ML-2; ML-2, 25% GI50, 12 h) | Acetyl-K sites, Down-regulated (ML-2; ML-2, 25% GI50, 12 h) | Acetyl-K sites, Up-regulated (ML-2; ML-2, 25% GI50, 12 h) | regulated Acetyl-K sites in Histone proteins (ML-2; ML-2, 25% GI50, 12 h) | regulated Acetyl-K sites in Non-histone proteins (ML-2; ML-2, 25% GI50, 12 h) | percentage of Acetyl-K sites regulated (ML-2; ML-2, 25% GI50, 12 h) | acetyl K-sites regulated specifically by the compound (ML-2; [1]) | fraction of regulated acetylation sites upregulated (ML-2; [1]) | further results
Cc1[nH]c2ccccc2c1CCNCc1ccc(/C=C/C(=O)NO)cc1 [Panobinostat, reference compound] | 52 | 587 | 8.1 | 91.9 | 8.9% | 322 | 82.3% | 2979 | 3618 | 17.7% | 639 | 317 | 49.6% | 322 | 317 | 52 | 587 | 17.7% | 232 | 53.2% | Number of proteins with >5 Acetyl-K sites per protein (ML-2): 11; Acetyl-K sites: Up-regulated, % (ML-2; ML-2 (Fig 4C)): 8.8%; Number of proteins with 1 Acetyl-K site per protein (ML-2; [2]): 354; Number of proteins with 2 Acetyl-K sites per protein (ML-2; [2]): 56; Number of proteins with 3 Acetyl-K sites per protein (ML-2; [2]): 25; Number of proteins with 4 Acetyl-K sites per protein (ML-2; [2]): 6
O=C(CCCCCCC(=O)Nc1ccccc1)NO [Vorinostat, reference compound] | 40 | 469 | 7.9 | 92.1 | 7.7% | 232 | 85.9% | 3109 | 3618 | 14.1% | 509 | 277 | 54.4% | 232 | 277 | 40 | 469 | 14.1% | 121 | 37.3% | Number of proteins with 1 Acetyl-K site per protein (ML-2; [2]): 298; Number of proteins with 2 Acetyl-K sites per protein (ML-2; [2]): 54; Number of proteins with 3 Acetyl-K sites per protein (ML-2; [2]): 16; Number of proteins with 4 Acetyl-K sites per protein (ML-2; [2]): 5; Number of proteins with >5 Acetyl-K sites per protein (ML-2; [2]): 6
CC1=C(/C=C/C(C)=C/C=C/C(C)=C/C(=O)O)C(C)(C)CCC1 [ATRA, all-trans retinoic acid, reference compound] |  |  |  |  |  |  |  |  |  |  |  |  |  |  |  |  |  |  |  |  | CD11b (%) (GF-D8): 5.2% and 12.5% and 12.9%; CD11b (%) (KASUMI-1): 1.2% and 9.5% and 4.6%; CD11b (%) (M-O7e): 0.25% and 2.3% and 4.5%; CD11b (%) (MONO-MAC-6): 10.8% and 15.4% and 11.3%; CD11b (%) (OCI-AML2): 15.2% and 20.2% and 14.1%; CD11b (%) (TF-1): 36.7% and 30.4% and 33.4%; CD11b (%) (THP-1): 48.6% and 40.2% and 38.7%; CD11b (%) (UT-7): 5.9% and 6.4% and 10.05%
